Data as given in patent US9353155B2, “Cell-penetrating peptides” (Universite Pierre et Marie Curie (Paris 6), priority 2011, dated 2016).
No end group written: not given here.

Experiments:
[1] = format: in vitro ADME, human
Protocol: The ratio of intensity of each pick is represented, relative to its own control. The R residue was mutated to K (Mut1-DPT-C9h), N (Mut2-DPT-C9h) or A (Mut3-DPT-C9h). Round: control DPT-C9h peptide (SEQ ID NO:6), Square: Mut1-DPT-C9h, Triangle: Mut2-DPT-C9h, Diamond: Mut3-DPT-C9h.
Analysis Peptide Stability in Human Serum
Analysis of peptides degradation was done by Proteominer and Maldi-Tof as previously described.

[2] = tested on: human cell lines; settings: cited from earlier work
[3] = tested on: human breast cancer xenograft; settings: injected in mice bearing human breast cancer xenograft; cited from earlier work
[4] = tested on: tumoral B cells isolated from chronic lymphocyte leukemia patients; settings: cited from earlier work

VKKKKIKAEIKIYVETLDDIFEQWAHSEDL [Mut3-DPT-C9h, VKKKKIKAEIKI-YVETLDDIFEQWAHSEDL]
degradation upon contact with human serum [1]: not degraded

VKKKKIKREIKI-YVETLDDIFEQWAHSEDL (VKKKKIKREIKIYVETLDDIFEQWAHSEDL; cell penetrating peptide) [DPT-C9h]
induction of apoptosis [2]: induces apoptosis
size of tumor [3]: important reduction
effect on healthy cells [4]: without effect
apoptotic effect ([4]; tumoral B cells isolated from chronic lymphocyte leukemia patients): specific apoptotic effect
